The text below walks through data of BindingDB's records for doi:10.1111/j.1747-0285.2012.01367.x (Peking University Health Science Center, 2012).

This experiment deals with Beta-secretase 1 (Homo sapiens, UniProt P56817). The experiment can be described thus: BACE-1 Inhibiiton Assay. The procedure:
Beta-Secretase inhibition evaluations were carried out using a fluorescence resonance energy transfer (FRET) assay kit supplied by PanVera (kit P2985).

Chain of Beta-secretase 1 (P56817 whole entry): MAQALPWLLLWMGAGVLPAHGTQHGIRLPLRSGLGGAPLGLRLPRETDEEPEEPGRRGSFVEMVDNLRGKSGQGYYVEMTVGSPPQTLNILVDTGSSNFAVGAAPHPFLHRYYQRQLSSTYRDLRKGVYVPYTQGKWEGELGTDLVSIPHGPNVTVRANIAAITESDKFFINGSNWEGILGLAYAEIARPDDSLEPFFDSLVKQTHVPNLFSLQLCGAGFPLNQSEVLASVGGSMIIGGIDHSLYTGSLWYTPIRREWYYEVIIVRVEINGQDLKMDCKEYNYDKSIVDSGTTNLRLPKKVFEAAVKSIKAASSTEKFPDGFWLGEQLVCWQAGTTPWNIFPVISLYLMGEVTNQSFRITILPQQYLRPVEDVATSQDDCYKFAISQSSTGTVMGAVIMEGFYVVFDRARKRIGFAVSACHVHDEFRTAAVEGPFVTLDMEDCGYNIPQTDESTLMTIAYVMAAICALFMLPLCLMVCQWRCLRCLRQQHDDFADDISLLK

Usually IC50 stands for the midpoint of a concentration-inhibition curve. Low values mean greater potency in that assay, high ones weaker potency in that assay. In turn, `O=C(NCc1ccc2c(c1)OCO2)c1cnc2cc(S(=O)(=O)Nc3cccc(C(F)(F)F)c3)ccc2c1O` [B53] yielded an IC50 of 310 nM. In other words, the sub-micromolar range.
Then `COc1ccc(-c2nc(SCC(=O)Nc3nc(-c4ccccc4)cs3)[nH]c(=O)c2C#N)cc1` [B51], with 4760 nM.
